Results as given in patent US20060069132A1, “Azolecarboxamide herbicides” (priority 2004, published 2006).

How the values were obtained:
corn = assay: Test C pre-/postemergence herbicide test; format: in vivo, Zea mays; conditions: for Corn plant response rating: 500 g ai/ha
Method in brief: (§1)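 Visual injury scores run from 0 (no effect) to 100 (complete control), assessed relative to untreated controls 12 to 14 days after treatment in the greenhouse. Chemicals were formulated in a non-phytotoxic solvent mixture with surfactant and applied to soil after planting or to emerged plants at the 1- to 4-leaf stage.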

velvetleaf = assay: Test A pre-/postemergence herbicide test; format: in vivo, Abutilon theophrasti
Method in brief: (§2)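 Pre: seeded sandy loam, directed soil spray, compound in non-phytotoxic solvent + surfactant. Post: 1–2-leaf plants (2–10 cm), sprayed to runoff. Greenhouse ~10 d; visual injury vs untreated, 0–100 scale.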

large crabgrass [1] = assay: Test A pre-/postemergence herbicide test; format: in vivo, Digitaria sanguinalis
Method in brief: as §2

Surinam grass = assay: Test C pre-/postemergence herbicide test; format: in vivo, Urochloa decumbens; conditions: for Surinam Grass plant response rating: 500 g ai/ha
Method in brief: as §1

giant foxtail = assay: Test C pre-/postemergence herbicide test; format: in vivo, Setaria faberi; conditions: for Foxtail, Giant plant response rating: 500 g ai/ha
Method in brief: as §1

kochia = assay: Test C pre-/postemergence herbicide test; format: in vivo, Kochia scoparia; conditions: for Kochia plant response rating: 500 g ai/ha
Method in brief: as §1

goosegrass = assay: Test C pre-/postemergence herbicide test; format: in vivo, Eleusine indica; conditions: for Goosegrass plant response rating: 500 g ai/ha
Method in brief: as §1

cocklebur = assay: Test C pre-/postemergence herbicide test; format: in vivo, Xanthium strumarium; conditions: for Cocklebur plant response rating: 500 g ai/ha
Method in brief: as §1

[2] = system: common (oilseed) sunflower; assay: Test C pre-/postemergence herbicide test; format: in vivo, Helianthus annuus; conditions: for Sunflower plant response rating: Preemergence, 500 g ai/ha, scale 0 to 100, 0 no effect, 100 complete control
Method in brief: as §1

bermudagrass = assay: Test C pre-/postemergence herbicide test; format: in vivo, Cynodon dactylon; conditions: for Bermudagrass plant response rating: 500 g ai/ha
Method in brief: as §1

large crabgrass [3] = assay: Test C pre-/postemergence herbicide test; format: in vivo, Digitaria sanguinalis; conditions: for Crabgrass, Large plant response rating: 500 g ai/ha
Method in brief: as §1

barnyardgrass = assay: Test A pre-/postemergence herbicide test; format: in vivo, Echinochloa crus-galli
Method in brief: as §2

[4] = 125 g ai/ha, scale 0 (no effect) to 100 (complete control), visual, 12 to 14 days, preemergence
[5] = 250 g ai/ha, scale 0 to 100 (0 no effect, 100 complete control), visual, 12 to 14 days, preemergence
[6] = Postemergence, 250 g ai/ha, scale 0 to 100, 0 no effect, 100 complete control
[7] = Preemergence, scale 0 to 100, 0 no effect, 100 complete control
[8] = postemergence, 125 g ai/ha, scale 0 to 100
[9] = postemergence, 62 g ai/ha, scale 0 to 100
[10] = Postemergence, 500 g ai/ha, 0 to 100 scale, 0 no effect, 100 complete control
[11] = Postemergence, 2000 g ai/ha, 0 to 100 scale, 0 no effect, 100 complete control
[12] = Preemergence, 500 g ai/ha, visual rating, 0 to 100 scale (0 no effect, 100 complete control)
[13] = Preemergence, 2000 g ai/ha, visual rating, 0 to 100 scale (0 no effect, 100 complete control)
[14] = 62 g ai/ha, preemergence, scale 0 to 100

In the case of `CCn1nc(C(C)(C)C)cc1C(=O)Nc1cccc(C(C)=NO)c1` [Compound 108], the “Plant response rating (0 = no effect, 100 = complete control), Corn” value (corn; 62 g ai/ha, preemergence) is reported as 30, the “Plant response rating, Corn” value (corn; [4]) is reported as 40 and the “Plant response rating, Corn” value (corn; [5]) is reported as 50. The “Corn plant response rating” value (corn; Postemergence, scale 0 to 100) was 60, the “Plant response rating, Corn” value (corn; [6]) was 50 and the “Corn plant response rating” value (corn; [7]) was 50. For the same compound, the “Plant response rating, Corn” value (corn; [8]) was 50, the “Plant response rating, Corn” value (corn; [9]) was 50 and the “Velvetleaf plant response rating” value (velvetleaf; [10]) was 90. The “Plant response rating, Velvetleaf” value (velvetleaf; [11]) was 100, the “Velvetleaf plant response rating” value (velvetleaf; [12]) was 55 and the “Velvetleaf plant response rating” value (velvetleaf; [13]) was 90. For the same compound, the “Crabgrass, Large plant response rating” value (large crabgrass [1]; [10]) was 65, the “Plant response rating, Crabgrass, Large” value (large crabgrass [1]; [11]) was 85 and the “Crabgrass, Large plant response rating” value (large crabgrass [1]; [12]) was 85. The “Crabgrass, Large plant response rating” value (large crabgrass [1]; [13]) was 100, the “Plant response rating (0 = no effect, 100 = complete control), Surinam Grass” value (Surinam grass; 62 g ai/ha, preemergence) was 30 and the “Plant response rating, Surinam Grass” value (Surinam grass; [4]) was 40. For the same compound, the “Surinam Grass plant response rating” value (Surinam grass; Postemergence, scale 0 to 100) was 50, the “Plant response rating, Surinam Grass” value (Surinam grass; [6]) was 40 and the “Surinam Grass plant response rating” value (Surinam grass; [7]) was 90. The “Plant response rating, Surinam Grass” value (Surinam grass; [8]) was 40, the “Plant response rating, Surinam Grass” value (Surinam grass; [9]) was 20 and the “Plant response rating (0 = no effect, 100 = complete control), Foxtail, Giant” value (giant foxtail; 62 g ai/ha, preemergence) was 100. The “Plant response rating, Foxtail, Giant” value (giant foxtail; [4]) was 100, the “Plant response rating, Foxtail, Giant” value (giant foxtail; [5]) was 100 and the “Foxtail, Giant plant response rating” value (giant foxtail; Postemergence, scale 0 to 100) was 70. For the same compound, the “Foxtail, Giant plant response rating” value (giant foxtail; [7]) was 100, the “Plant response rating, Foxtail, Giant” value (giant foxtail; [8]) was 50 and the “Plant response rating, Foxtail, Giant” value (giant foxtail; [9]) was 30. For the same compound, the “Plant response rating (0 = no effect, 100 = complete control), Kochia” value (kochia; 62 g ai/ha, preemergence) was 100, the “Plant response rating, Kochia” value (kochia; [4]) was 100 and the “Kochia plant response rating” value (kochia; Postemergence, scale 0 to 100) was 90. For the same compound, the “Plant response rating, Kochia” value (kochia; [6]) was 90, the “Kochia plant response rating” value (kochia; [7]) was 100 and the “Plant response rating, Kochia” value (kochia; [8]) was 80. The “Plant response rating, Kochia” value (kochia; [9]) was 60, the “Plant response rating (0 = no effect, 100 = complete control), Goosegrass” value (goosegrass; 62 g ai/ha, preemergence) was 90 and the “Plant response rating, Goosegrass” value (goosegrass; [4]) was 100. For the same compound, the “Goosegrass plant response rating” value (goosegrass; Postemergence, scale 0 to 100) was 70, the “Plant response rating, Goosegrass” value (goosegrass; [6]) was 70 and the “Goosegrass plant response rating” value (goosegrass; [7]) was 100. For the same compound, the “Plant response rating, Goosegrass” value (goosegrass; [8]) was 40, the “Plant response rating, Goosegrass” value (goosegrass; [9]) was 20 and the “Plant response rating (0 = no effect, 100 = complete control), Cocklebur” value (cocklebur; 62 g ai/ha, preemergence) was 20. The “Plant response rating, Cocklebur” value (cocklebur; [4]) was 30, the “Plant response rating, Cocklebur” value (cocklebur; [5]) was 30 and the “Cocklebur plant response rating” value (cocklebur; Postemergence, scale 0 to 100) was 100. The “Plant response rating, Cocklebur” value (cocklebur; [6]) was 100, the “Cocklebur plant response rating” value (cocklebur; [7]) was 50 and the “Plant response rating, Cocklebur” value (cocklebur; [8]) was 80. The “Plant response rating, Cocklebur” value (cocklebur; [9]) was 70, the “Plant response rating (0 = no effect, 100 = complete control), Sunflower” value ([2]; 62 g ai/ha, preemergence) was 20 and the “Plant response rating, Sunflower” value [2, 4] was 20. For the same compound, the “Sunflower plant response rating” value [2] was 20, the “Plant response rating (0 = no effect, 100 = complete control), Bermudagrass” value (bermudagrass; 62 g ai/ha, preemergence) was 100 and the “Plant response rating, Bermudagrass” value (bermudagrass; [4]) was 100. The “Plant response rating, Bermudagrass” value (bermudagrass; [5]) was 100, the “Bermudagrass plant response rating” value (bermudagrass; Postemergence, scale 0 to 100) was 80 and the “Plant response rating, Bermudagrass” value (bermudagrass; [6]) was 60. For the same compound, the “Bermudagrass plant response rating” value (bermudagrass; [7]) was 100, the “Plant response rating, Bermudagrass” value (bermudagrass; [8]) was 30 and the “Plant response rating, Bermudagrass” value (bermudagrass; [9]) was 30. For the same compound, the “Plant response rating (0 = no effect, 100 = complete control), Crabgrass, Large” value (large crabgrass [3]; 62 g ai/ha, preemergence) was 100, the “Plant response rating, Crabgrass, Large” value (large crabgrass [3]; [4]) was 100 and the “Plant response rating, Crabgrass, Large” value (large crabgrass [3]; [5]) was 100. For the same compound, the “Crabgrass, Large plant response rating” value (large crabgrass [3]; Postemergence, scale 0 to 100) was 100, the “Plant response rating, Crabgrass, Large” value (large crabgrass [3]; [6]) was 70 and the “Crabgrass, Large plant response rating” value (large crabgrass [3]; [7]) was 100. For the same compound, the “Plant response rating, Crabgrass, Large” value (large crabgrass [3]; [8]) was 70, the “Plant response rating, Crabgrass, Large” value (large crabgrass [3]; [9]) was 10 and the “Barnyardgrass plant response rating” value (barnyardgrass; [10]) was 85. The “Plant response rating, Barnyardgrass” value (barnyardgrass; [11]) was 100, the “Barnyardgrass plant response rating” value (barnyardgrass; [12]) was 85 and the “Barnyardgrass plant response rating” value (barnyardgrass; [13]) was 90.

For `CCNC(=O)c1cc(C)nc(NC(=O)c2cc(C(C)(C)C)nn2CC)c1` [Compound 149], the “Plant response rating, Corn” value (corn; [14]) was 0, the “Plant response rating, Corn” value (corn; [4]) was 0 and the “Plant response rating, Corn” value (corn; [5]) was 10. For the same compound, the “Corn plant response rating” value (corn; [7]) was 10, the “Velvetleaf plant response rating” value (velvetleaf; [10]) was 30 and the “Plant response rating, Velvetleaf” value (velvetleaf; [11]) was 40. For the same compound, the “Velvetleaf plant response rating” value (velvetleaf; [13]) was 25, the “Velvetleaf plant response rating” value (velvetleaf; preemergence, 500 g ai/ha, visual injury, 0 to 100 scale (0 no effect, 100 complete control)) was 0 and the “Crabgrass, Large plant response rating” value (large crabgrass [1]; [10]) was 40. The “Plant response rating, Crabgrass, Large” value (large crabgrass [1]; [11]) was 75, the “Crabgrass, Large plant response rating” value (large crabgrass [1]; [12]) was 95 and the “Crabgrass, Large plant response rating” value (large crabgrass [1]; [13]) was 100. The “Plant response rating, Surinam Grass” value (Surinam grass; [14]) was 0, the “Plant response rating, Surinam Grass” value (Surinam grass; [4]) was 5 and the “Surinam Grass plant response rating” value (Surinam grass; [7]) was 85. The “Plant response rating, Foxtail, Giant” value (giant foxtail; [14]) was 0, the “Plant response rating, Foxtail, Giant” value (giant foxtail; [4]) was 50 and the “Plant response rating, Foxtail, Giant” value (giant foxtail; [5]) was 60. For the same compound, the “Foxtail, Giant plant response rating” value (giant foxtail; [7]) was 100, the “Plant response rating, Kochia” value (kochia; [14]) was 0 and the “Plant response rating, Kochia” value (kochia; [4]) was 10. For the same compound, the “Kochia plant response rating” value (kochia; [7]) was 90, the “Plant response rating, Goosegrass” value (goosegrass; [14]) was 10 and the “Plant response rating, Goosegrass” value (goosegrass; [4]) was 70. For the same compound, the “Goosegrass plant response rating” value (goosegrass; [7]) was 90, the “Plant response rating, Cocklebur” value (cocklebur; [14]) was 0 and the “Plant response rating, Cocklebur” value (cocklebur; [4]) was 0. For the same compound, the “Plant response rating, Cocklebur” value (cocklebur; [5]) was 0, the “Cocklebur plant response rating” value (cocklebur; [7]) was 0 and the “Plant response rating, Sunflower” value [2, 14] was 0. The “Plant response rating, Sunflower” value [2, 4] was 0, the “Sunflower plant response rating” value [2] was 0 and the “Plant response rating, Bermudagrass” value (bermudagrass; 62 g ai/ha, preemergence, scale 0 to 100, 0 no effect, 100 complete control) was 30. The “Plant response rating, Bermudagrass” value (bermudagrass; [4]) was 90, the “Plant response rating, Bermudagrass” value (bermudagrass; [5]) was 90 and the “Bermudagrass plant response rating” value (bermudagrass; [7]) was 95. The “Plant response rating, Crabgrass, Large” value (large crabgrass [3]; [14]) was 20, the “Plant response rating, Crabgrass, Large” value (large crabgrass [3]; [4]) was 90 and the “Plant response rating, Crabgrass, Large” value (large crabgrass [3]; [5]) was 100. For the same compound, the “Crabgrass, Large plant response rating” value (large crabgrass [3]; [7]) was 100, the “Barnyardgrass plant response rating” value (barnyardgrass; [10]) was 45 and the “Plant response rating, Barnyardgrass” value (barnyardgrass; [11]) was 65. For the same compound, the “Barnyardgrass plant response rating” value (barnyardgrass; [12]) was 70 and the “Barnyardgrass plant response rating” value (barnyardgrass; [13]) was 90.
